# Test results: patent publication US8299252B2, “Pyrazolopyridine and pyrrolopyridine multikinase inhibitors” (Chugai Seiyaku Kabushiki Kaisha, priority 2005, dated 2012)
# Key:
# [1] = Solubility in fasted state simulated intestinal fluid; type: physicochemical; conditions: pH 6.5, fassif, kinetic from dmso stock, fasted state simulated intestinal fluid (pH6.5), 37° C.
# Method: 2 μL of each dimethyl sulfoxide solutions containing test compounds were dispensed into wells of a 96-well plate, and 200 μL of fasted state simulated intestinal fluid (pH6.5) was added to each well. The plate was shaken at 37° C. for 20 hours. The solution was filtered through a membrane filter, and 101 μL of the filtrate was transferred to a UV plate, followed by addition of 100 μL of a solution mixture of ethanol:water=2:1 thereto. Separately, as a standard, 101 μL of a solution prepared by 2 μL of a dimethyl sulfoxide solution, 4 μL of dimethyl sulfoxide, 400 μL of ethanol, and 200 μL of water was transferred to a UV plate, and 100 μL of fasted state simulated intestinal fluid (pH6.5) was added thereto. The solubility was calculated by the following expression: Solubility=[(absorbance of test solution)−blank]/[(absorbance of standard solution)−blank]×165 μM (165 μM is the concentration of the standard solution) Composition of the fasted state simulated intestinal fluid (pH6.5)
# The composition was prepared in compliance with the description in E. Galia, et al., Pharm. Res. 1998, 698.
# Taurocholic acid (161 mg), L-α-phosphatidylcholine (59 mg), potassium dihydrogen phosphate (0.39 g), and potassium chloride (0.77 g) were added to about 90 mL of water. The resulting solution was adjusted to a pH of 6.5 with a sodium hydroxide aqueous solution and then diluted to a volume of 100 mL with water. The solution was filtered through a membrane filter.
# [2] = test system: human umbilical vein endothelial cells (HUVEC), VEGF-dependent proliferation; assay: VEGF-dependent HUVEC proliferation inhibition assay; type: cell-based; conditions: read-out: 50% proliferation inhibitory concentration (IC50 value) HUVEC (VEGF-dependent), 20 ng/mL of VEGF, 72 hours, WST-1
# Method: (§1) The compounds according to the present invention were measured for cancer cell proliferation inhibitory activity and human umbilical vein endothelial cell (HUVEC) proliferation inhibitory activity.
# (§2) Test compounds were serially diluted with dimethyl sulfoxide and then diluted 50 times with Ca^2+- and Mg^2+-free phosphate-buffered saline, and 20 μL of each of the resulting solution was dispensed into a 96-well plate. […] Each cell suspension contains approximately 3000 cells/180 μL. These cell suspensions were dispensed to the plate containing the test compounds at 180 μL/well and incubated in a 5% carbon dioxide gas incubator at 37° C. for 72 hours. 20 μL of WST-8 (HCT116, Dojin) or WST-1 (HUVEC, Roche Diagnostics) was added to each well, and absorbance at 450 nm (reference wavelength: 650 nm) was measured.
# [3] = test system: tube formation of human-derived vascular endothelial cells (HUVEC); assay: Tube formation inhibition test (angiogenesis assay kit, KURABO); type: cell-based; conditions: 264 h, final concentration 6.4 nM, 11 days, read-out: Tube formation inhibition ratio (%)
# Method: The formed tubes were stained with a tube staining kit CD31 (KURABO). The stain image of each well was taken under a microscope, stored in an image file, and measured for the tube formation area using angiogenesis quantitative analysis software of KURABO. The inhibition ratio % of each test compound added to the well was calculated, provided that the ratio of the reference was 100%.
# [4] = target: T1, FLT3 intracellular domain protein (Homo sapiens, UniProt P36888); assay: Flt3 enzyme inhibition test (HTRF); type: biochemical; conditions: phosphorylation of biotinylated peptide
# T1 sequence (P36888 564-993 limits assumed): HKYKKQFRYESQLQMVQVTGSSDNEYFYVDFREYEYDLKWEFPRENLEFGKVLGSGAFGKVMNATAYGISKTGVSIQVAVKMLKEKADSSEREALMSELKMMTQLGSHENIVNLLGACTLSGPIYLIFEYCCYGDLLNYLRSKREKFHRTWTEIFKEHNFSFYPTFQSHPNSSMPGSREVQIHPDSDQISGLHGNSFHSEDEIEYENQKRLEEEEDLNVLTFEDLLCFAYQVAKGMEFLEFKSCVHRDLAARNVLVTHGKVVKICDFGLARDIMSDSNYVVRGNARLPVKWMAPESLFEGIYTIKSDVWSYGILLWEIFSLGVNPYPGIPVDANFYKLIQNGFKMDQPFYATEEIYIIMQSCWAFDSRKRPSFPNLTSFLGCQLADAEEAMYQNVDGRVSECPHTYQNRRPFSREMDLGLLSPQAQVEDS
# Method: The FLT3 inhibitory activity was measured by the activity of FLT3 intracellular domain protein inhibiting for phosphorylation of a biotinylated peptide ([…]).
# [5] = test system: human umbilical vein endothelial cells (HUVEC), VEGF-independent proliferation; assay: VEGF-independent HUVEC proliferation inhibition assay; type: cell-based; conditions: read-out: 50% proliferation inhibitory concentration (IC50 value) HUVEC (VEGF-independent), vascular endothelial cell growth-promoting agent and heparin, 72 hours, WST-1
# Method: as §1, §2
# [6] = test system: human colon cancer cell line HCT116 cells; assay: Antitumor test, HCT116 transplanted subcutaneously in nude mice; type: in vivo, female Balb/c nude mouse; conditions: once a day for 12 days; for Tumor growth inhibition ratio (%): last administration day; for Decrease ratio in body weight (%): maximum decrease
# Method: A cell suspension of human colon cancer cell line HCT116 cells was prepared using Hanks's solution, and 5.0×10^6 cells thereof were transplanted subcutaneously into the flank of each female Balb/c nude mouse. Oral administration of the test compound (once a day for 12 days) was started when the transplanted tumor volume reached 200 to 250 mm^3. The tumor volume was calculated by the expression: 0.5×(minor axis)^2×(major axis). The tumor growth inhibition ratio of tumor growth of the test compound to tumor growth of the reference group was determined.
# [7] = test system: human colon cancer cell line HCT116 cells; assay: Cell proliferation inhibitory activity, HCT116; type: cell-based; conditions: Homo sapiens, HCT-116, read-out: 50% proliferation inhibitory concentration (IC50 value) HCT116; HCT116, 72 hours, WST-8
# Method: as §1, §2
# [8] = Pharmacokinetics test, oral administration; type: in vivo; conditions: female, Balb/c nude, mouse, 100 mg/kg, plasma
# Method: The compound according to the present invention and known Compound A were measured for pharmacokinetics. Each of the test compounds was orally administered to each female Balb/c nude mouse at a dose of 100 mg/kg, and concentrations of the compound in plasma 0.5, 2, 7, and 24 hours after the administration were quantitatively measured by LC-MS-MS.
# [9] = test system: choroidal neovascularization; assay: Laser coagulation-induced murine choroidal neovascularization model; type: in vivo, C57BL6J mice; conditions: for Average FA score: once a day for three days
# Method: Laser coagulation was performed on two- to three-month-old C57BL6J mice (ten mice per group) by using a 408 nm semiconductor laser (DC-3000, Nidek). Both eyes were each irradiated at three positions with a spot size of 170 μm, an exposure time of 0.02 sec, and an output of 200 mW. The drug was orally administered once a day for three days beginning on the day of the laser coagulation. On the next day of the last administration, the mice were intravenously injected with 7 mg/kg of fluorescein. Five minutes after the injection, three fluorescent fundus images of each eye were taken (TRC-501X, Topcon) and stored in a CCD camera having 640×480 pixels as an image file. The total pixel brightness (0 to 1) in regions where fluorescein leakage was detected was used as an index (FA score) of choroidal neovascularization activity. The FA score was calculated by defining reference values such that the pixel brightness in a capillary region of a non-coagulated site is 0 and the pixel brightness on a main branch of the retinal blood vessel is 1.
# Raf-1 = Raf-1 (Homo sapiens, UniProt P04049); assay: Raf-1 enzyme inhibition assay (MEK-1 phosphorylation, HTRF); type: biochemical; conditions: phosphorylation of His6-MEK-1
# Method: (§3) The compounds according to the present invention were measured for Raf-1 and KDR enzyme inhibitory activities.
# (§4) The Raf-1 inhibitory activity was measured by the activity of Raf-1 protein for inhibiting phosphorylation of MEK-1 protein having six histidine residues (His6) fused to the N-terminus thereof. […] The KDR inhibitory activity was measured by the activity of KDR intracellular domain protein for inhibiting phosphorylation of a biotinylated peptide ([…]).
# [10] = target: KDR intracellular domain protein (Homo sapiens, UniProt P35968); assay: KDR enzyme inhibition assay (biotinylated peptide phosphorylation, HTRF); type: biochemical; conditions: phosphorylation of biotinylated peptide
# Method: as §3, §4
# Raf-1, sequence (P04049 whole entry): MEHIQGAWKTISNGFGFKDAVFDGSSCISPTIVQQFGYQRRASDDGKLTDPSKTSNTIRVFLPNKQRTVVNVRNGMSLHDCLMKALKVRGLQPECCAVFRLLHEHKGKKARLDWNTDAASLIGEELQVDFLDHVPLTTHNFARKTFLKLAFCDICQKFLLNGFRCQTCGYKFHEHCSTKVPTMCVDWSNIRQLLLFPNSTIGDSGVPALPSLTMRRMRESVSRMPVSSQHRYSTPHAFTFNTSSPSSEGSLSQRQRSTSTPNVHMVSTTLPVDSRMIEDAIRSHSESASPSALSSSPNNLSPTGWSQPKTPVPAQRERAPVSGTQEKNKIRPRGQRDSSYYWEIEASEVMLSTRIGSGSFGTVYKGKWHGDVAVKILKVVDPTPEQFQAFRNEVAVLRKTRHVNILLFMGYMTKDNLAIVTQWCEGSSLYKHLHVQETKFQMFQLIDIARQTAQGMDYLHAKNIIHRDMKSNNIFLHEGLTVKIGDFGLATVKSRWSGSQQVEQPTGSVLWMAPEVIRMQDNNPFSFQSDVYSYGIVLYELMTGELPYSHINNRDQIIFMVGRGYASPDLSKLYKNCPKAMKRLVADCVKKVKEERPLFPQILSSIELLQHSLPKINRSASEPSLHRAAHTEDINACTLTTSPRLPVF
# KDR intracellular domain protein, sequence (P35968 786-1356 limits assumed): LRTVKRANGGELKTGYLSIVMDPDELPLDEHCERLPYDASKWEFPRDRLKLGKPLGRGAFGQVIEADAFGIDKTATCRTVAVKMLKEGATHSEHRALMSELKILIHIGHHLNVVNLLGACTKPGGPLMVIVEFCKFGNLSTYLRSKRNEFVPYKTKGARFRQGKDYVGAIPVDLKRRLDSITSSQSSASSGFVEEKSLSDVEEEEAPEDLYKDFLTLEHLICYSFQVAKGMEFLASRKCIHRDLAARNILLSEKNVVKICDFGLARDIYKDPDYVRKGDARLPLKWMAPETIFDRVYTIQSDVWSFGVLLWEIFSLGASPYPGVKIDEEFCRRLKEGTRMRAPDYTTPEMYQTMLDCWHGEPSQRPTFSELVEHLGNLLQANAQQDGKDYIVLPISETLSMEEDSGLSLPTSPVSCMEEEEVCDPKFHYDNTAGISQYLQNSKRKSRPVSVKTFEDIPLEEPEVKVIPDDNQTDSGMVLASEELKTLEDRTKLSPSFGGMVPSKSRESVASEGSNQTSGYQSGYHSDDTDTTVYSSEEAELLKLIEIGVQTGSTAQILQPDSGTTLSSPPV
SMILES,solubility at 20 h [1],IC50 [2],inhibition at 0.0064 µM [3],IC50 [4],IC50 [5],IC50 [7],also measured
"O=C(Nc1ccc(Oc2ccnc3[nH]ncc23)cc1)Nc1ccc(CCCF)c(C(F)(F)F)c1 [Compound 19, 1-[4-(3-Fluoro-propyl)-3-(trifluoromethyl)phenyl]-3-[4-(1H-pyrazolo[3,4-b]pyridin-4-yloxy)phenyl]urea]",16 µg/mL,0.0018 µM,98%,0.018 µM,0.3 µM,2.4 µM,Tumor growth inhibition ratio (%) ([6]; 100 mg/kg oral): 89%; Decrease ratio in body weight (%) ([6]; 100 mg/kg oral): 4.9%
"CNC(=O)c1cc(Oc2ccc(NC(=O)Nc3ccc(Cl)c(C(F)(F)F)c3)cc2)ccn1 [Compound A, BAY 43-9006, reference compound]",6 µg/mL,,,,,,AUC [8]: 189 µg·h/mL; Cmax [8]: 19200 ng/mL; inhibition of the angiogenesis (in words) ([9]; 100 mg/kg): did not significantly inhibit; Average FA score ([9]; 100 mg/kg oral): 7.258
"O=C(Nc1ccc(Oc2ccnc3[nH]ccc23)cc1)Nc1ccc(OC2CCOCC2)c(C(F)(F)F)c1 [Compound 7, 1-[4-(1H-Pyrrolo[2,3-b]pyridin-4-yloxy)phenyl]-3-[4-(tetrahydropyran-4-yloxy)-3-(trifluoromethyl)phenyl]urea]",,0.0039 µM,99%,0.0069 µM,0.86 µM,3.2 µM,Tumor growth inhibition ratio (%) ([6]; 200 mg/kg oral): 97%; Decrease ratio in body weight (%) ([6]; 200 mg/kg oral): 3.6%
"O=C(Nc1ccc(Oc2ccnc3[nH]ccc23)cc1)Nc1ccc(Oc2ccc(F)cc2)c(C(F)(F)F)c1 [Compound 58, 1-[4-(4-Fluorophenoxy)-3-(trifluoromethyl)phenyl]-3-[4-(1H-pyrrolo[2,3-b]pyridin-4-yloxy)phenyl]urea]",,,,,,,inhibition of the angiogenesis (in words) ([9]; 50 mg/kg): significantly inhibited; Average FA score ([9]; 50 mg/kg oral): 7.127; Average FA score ([9]; 100 mg/kg oral): 6.664
"COCCOc1ccc(NC(=O)Nc2ccc(Oc3ccnc4[nH]ncc34)cc2)cc1C(F)(F)F [Compound 2, 1-[4-(2-Methoxyethoxy)-3-(trifluoromethyl)phenyl]-3-[4-(1H-pyrazolo[3,4-b]pyridin-4-yloxy)phenyl]urea]",,,82%,,,,
"O=C(Nc1ccc(Oc2ccnc3[nH]ccc23)cc1)Nc1ccc(OCCF)c(C(F)(F)F)c1 [Compound 15, 1-[4-(2-Fluoroethoxy)-3-(trifluoromethyl)phenyl]-3-[4-(1H-pyrrolo[2,3-b]pyridin-4-yloxy)phenyl]urea]",,0.004 µM,100%,0.011 µM,1.2 µM,2.3 µM,
"O=C(Nc1ccc(Oc2ccnc3[nH]ccc23)cc1)Nc1cc(CCF)cc(C(F)(F)F)c1 [Compound 22, 1-[3-(2-Fluoroethyl)-5-(trifluoromethyl)phenyl]-3-[4-(1H-pyrrolo[2,3-b]pyridin-4-yloxy)phenyl]urea]",16 µg/mL,0.0054 µM,96%,0.014 µM,0.63 µM,1.3 µM,IC50 (Raf-1): 0.023 µM; IC50 [10]: 0.0036 µM
"COCCOc1ccc(NC(=O)Nc2ccc(Oc3ccnc4[nH]ccc34)cc2)cc1C(F)(F)F [Compound 1, 1-[4-(2-methoxyethoxy)-3-(trifluoromethyl)phenyl]-3-[4-(1H-pyrrolo[2,3-b]pyridin-4-yloxy)phenyl]urea]",,0.0037 µM,98%,0.0032 µM,2.6 µM,2.1 µM,
"O=C(Nc1ccc(Oc2ccnc3[nH]ccc23)cc1)Nc1ccc(CCF)c(C(F)(F)F)c1 [Compound 21, 1-[4-(2-Fluoroethyl)-3-(trifluoromethyl)phenyl]-3-[4-(1H-pyrrolo[2,3-b]pyridin-4-yloxy)phenyl]urea]",,0.0044 µM,100%,,0.86 µM,1.3 µM,
"O=C(Nc1ccc(Oc2ccnc3[nH]ccc23)cc1)Nc1ccc(CCCF)c(C(F)(F)F)c1 [Compound 11, 1-[4-(3-Fluoropropyl)-3-(trifluoromethyl)phenyl]-3-[4-(1H-pyrrolo[2,3-b]pyridin-4-yloxy)phenyl]urea]",14 µg/mL,0.0058 µM,82%,0.0097 µM,0.65 µM,1.6 µM,Tumor growth inhibition ratio (%) ([6]; 100 mg/kg oral): 89%; Decrease ratio in body weight (%) ([6]; 100 mg/kg oral): 7.8%
